In patent US7115600B2, “Histamine-3 receptor modulators” (Pfizer Inc., priority 2004, dated 2006):

Target: T1, rat histamine H3 receptors (Rattus norvegicus, UniProt Q9QYN8)
T1 construct: Frozen rat frontal brain or frozen human post-mortem frontal brain is homogenized; from tissue; host or cells: rat frontal brain membranes
Experiment: Rat Histamine H3 Receptor Binding
Conditions: frozen rat frontal brain membranes; radioligand 1 nM 3H-N-methyl-histamine; 1 hour incubation; read-out: rH3 Ki

T1 sequence (Q9QYN8 whole entry): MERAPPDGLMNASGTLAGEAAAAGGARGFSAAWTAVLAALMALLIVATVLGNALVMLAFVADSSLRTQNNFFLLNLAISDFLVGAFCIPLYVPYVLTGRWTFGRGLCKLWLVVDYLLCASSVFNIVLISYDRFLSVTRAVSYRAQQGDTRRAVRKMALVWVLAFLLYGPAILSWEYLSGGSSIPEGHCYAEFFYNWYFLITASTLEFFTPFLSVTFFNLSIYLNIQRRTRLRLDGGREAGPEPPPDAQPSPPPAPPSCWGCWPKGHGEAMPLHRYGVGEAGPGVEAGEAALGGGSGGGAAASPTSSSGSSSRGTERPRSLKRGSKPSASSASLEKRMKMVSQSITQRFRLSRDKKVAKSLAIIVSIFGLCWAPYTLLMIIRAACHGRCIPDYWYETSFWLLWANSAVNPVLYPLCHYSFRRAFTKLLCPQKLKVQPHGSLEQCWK

Row | Compound | Ki
1 | c1cc([C@H]2C[C@@H](CN3CCCCC3)C2)ccc1CN1CCCC1 [Example 104, cis-1-[3-(4-Pyrrolidin-1-ylmethyl-phenyl)-cyclobutylmethyl]-piperidine] | 2.78 nM
2 | Fc1cnc(N2CCN(C[C@H]3C[C@@H](c4ccc(CN5CCCC5)cc4)C3)CC2)nc1 [Example 102, cis-5-Fluoro-2-{4-[3-(4-pyrrolidin-1-ylmethyl-phenyl)-cyclobutylmethyl]-piperazin-1-yl}-pyrimidine] | 1.83 nM
3 | Fc1cnc(N2CCN(C[C@H]3C[C@H](c4ccc(CN5CCCC5)cc4)C3)CC2)nc1 [Example 112, trans-5-Fluoro-2-{4-[3-(4-pyrrolidin-1-ylmethyl-phenyl)-cyclobutylmethyl]-piperazin-1-yl}-pyrimidine] | 0.77 nM
4 | C[C@@H]1CN(C[C@H]2C[C@H](c3ccc(CN4CCCC4)cc3)C2)C[C@H](C)O1 [Example 126, trans-(2R,6S)-2,6-Dimethyl-4-[3-(4-pyrrolidin-1-ylmethyl-phenyl)-cyclobutylmethyl]-morpholine] | 1.89 nM
5 | Cc1cnc(OC[C@H]2C[C@@H](c3ccc(CN4CCCC4)cc3)C2)nc1C1CCNCC1 [Example 81, cis-5-Methyl-4-piperidin-4-yl-2-[3-(4-pyrrolidin-1-ylmethyl-phenyl)-cyclobutylmethoxy]-pyrimidine] | 58 nM
6 | CC1CCCC(C)N1C[C@H]1C[C@H](c2ccc(CN3CCCC3)cc2)C1 (stereo partly drawn) [Example 121, trans-2,6-Dimethyl-1-[3-(4-pyrrolidin-1-ylmethyl-phenyl)-cyclobutylmethyl]-piperidine] | 2.81 nM

Results, then the compound that gave them:

Row | Ki | Compound
7 | 92.6 nM | Cc1cc(C)nc(OC[C@H]2C[C@H](c3ccc(CN4CCCC4)cc3)C2)n1 [Example 55, trans-4,6-Dimethyl-2-[3-(4-pyrrolidin-1-ylmethyl-phenyl)-cyclobutylmethoxy]-pyrimidine]
8 | 23.2 nM | Cc1ccc(S(=O)(=O)OC[C@H]2C[C@@H](c3ccc(CN4CCCC4)cc3)C2)cc1 [Example 47, cis-Toluene-4-sulfonic acid 3-(4-pyrrolidin-1-ylmethyl-phenyl)-cyclobutylmethyl ester]
9 | 122 nM | N#Cc1ccccc1COCC1CC(c2ccc(CN3CCCC3)cc2)C1 (centres unmarked) [Example 6, 2-[3-(4-Pyrrolidin-1-ylmethyl-phenyl)-cyclobutylmethoxymethyl]-benzonitrile]
10 | 99.2 nM | N#Cc1ccc(COCC2CC(c3ccc(CN4CCCC4)cc3)C2)cc1 (centres unmarked) [Example 7, 4-[3-(4-Pyrrolidin-1-ylmethyl-phenyl)-cyclobutylmethoxymethyl]-benzonitrile]
11 | 4.46 nM | CCN(CCO)C[C@H]1C[C@H](c2ccc(CN3CCCC3)cc2)C1 [Example 113, trans-2-{Ethyl-[3-(4-pyrrolidin-1-ylmethyl-phenyl)-cyclobutylmethyl]-amino}-ethanol]
12 | 2.55 nM | c1ccc(C2CCCN2C[C@H]2C[C@H](c3ccc(CN4CCCC4)cc3)C2)nc1 (relative stereo) [Example 109, trans-2-{1-[3-(4-Pyrrolidin-1-ylmethyl-phenyl)-cyclobutylmethyl]-pyrrolidin-2-yl}-pyridine]
13 | 3.93 nM | c1cc([C@H]2C[C@@H](CN3CCCC3)C2)ccc1CN1CCCC1 [Example 103, cis-1-[3-(4-Pyrrolidin-1-ylmethyl-phenyl)-cyclobutylmethyl]-pyrrolidine]
14 | 118 nM | COc1ccc(-c2cnc(OC[C@H]3C[C@@H](c4ccc(CN5CCCC5)cc4)C3)nc2)cc1 [Example 92, cis-5-(4-Methoxy-phenyl)-2-[3-(4-pyrrolidin-1-ylmethyl-phenyl)-cyclobutylmethoxy]-pyrimidine]
